Data on ten compounds can be found in patent US6821962B2, “Quinoline and quinoxaline compounds which inhibit platelet-derived growth factor and /or p56lck tyrosine kinases” (Aventis Pharmaceuticals Inc., priority 1997, dated 2004).

Counter-ions that a name gives are not always drawn.

Chain of Fyn (P06241 whole entry, species assumed): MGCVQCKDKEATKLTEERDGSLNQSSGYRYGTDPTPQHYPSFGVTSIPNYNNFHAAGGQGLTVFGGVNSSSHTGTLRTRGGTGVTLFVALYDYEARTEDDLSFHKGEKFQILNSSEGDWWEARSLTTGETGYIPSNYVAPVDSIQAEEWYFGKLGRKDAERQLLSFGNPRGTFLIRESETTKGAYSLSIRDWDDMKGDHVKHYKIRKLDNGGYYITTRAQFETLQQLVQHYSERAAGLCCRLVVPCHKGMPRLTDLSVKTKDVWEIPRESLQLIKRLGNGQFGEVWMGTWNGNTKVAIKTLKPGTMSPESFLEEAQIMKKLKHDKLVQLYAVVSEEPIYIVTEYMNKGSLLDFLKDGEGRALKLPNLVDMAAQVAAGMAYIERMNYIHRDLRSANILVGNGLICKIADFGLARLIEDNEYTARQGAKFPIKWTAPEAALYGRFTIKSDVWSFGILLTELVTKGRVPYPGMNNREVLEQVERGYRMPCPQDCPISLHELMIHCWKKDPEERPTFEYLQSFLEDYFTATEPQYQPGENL

Test system in the first series: not given
Settings: not given
On to `CC(C)Oc1ccc2nc(Nc3ccccc3)cnc2c1.Cl`, for which the melting point is 205 to 210 °C (dec.).
With `COc1cc2ncc(CNC3CCCCC3)nc2cc1OC` (as salt: HCl) [Example 11, Cyclohexyl-(6,7-dimethoxyquinoxalin-2-ylmethyl)-amine], the melting point was 185 to 190 °C (dec.).
Still for that read-out and setting: as for `COc1cc2ncc(NC3CCCCC3)nc2cc1OC` [Example 3, 2-cyclohexylamino-6,7-dimethoxyquinoxaline], the figure is 188 to 189.5 °C.
Still for that read-out and setting: next, `Oc1ccc2nc(Nc3ccccc3)cnc2c1` [Example 8, 2-Anilino-6-quinoxalinol]: 211 to 213 °C; `c1ccc(Nc2cnc3cc(O[C@@H]4CCOC4)ccc3n2)cc1` [Example 9, Phenyl-[6-(tetrahydrofuran-3-(R)-yl-oxy)quinoxalin-2-yl]amine]: 173 to 175 °C.
Compound `COc1cc2ncc(OC3CCCCC3)nc2cc1OC1CCCCC1` [Example 10, 2,7-Bis-cyclohexyloxy-6-methoxy-quinoxaline] came in with a melting point of 75 to 78 °C.
The compound `COc1cc2cc(NCC(C)(C)CO)cnc2cc1OC` [Example 13, 3-(6,7-Dimethoxyquinolin-3-yl-amino)-2,2-dimethyl-propan-1-ol] had a melting point of 170 to 173.5 °C.
The same measure, in the same setting: next, `COc1cc2ncc(NC3CCCCC3)nc2cc1N1CCOCC1` [Example 14, Cyclohexyl-(6-methoxy-7-morpholin-4-yl-quinoxalin-2-yl)-amine]: 194 to 196 °C; `COc1cc2ncc(N[C@@H]3C[C@H]4CC[C@@H]3C4)nc2cc1OC` [Example 22, (1R,2R,4S)-(+)-Bicyclo[2.2.1]hept-2-yl-(6,7-dimethoxyquinoxalin-2-yl)-amine]: 184 to 186 °C.

For the next series, the target named is Lck (Homo sapiens, UniProt P06239). Particulars: background, literature report; cited from earlier work.
Chain of Lck (P06239 whole entry, species assumed): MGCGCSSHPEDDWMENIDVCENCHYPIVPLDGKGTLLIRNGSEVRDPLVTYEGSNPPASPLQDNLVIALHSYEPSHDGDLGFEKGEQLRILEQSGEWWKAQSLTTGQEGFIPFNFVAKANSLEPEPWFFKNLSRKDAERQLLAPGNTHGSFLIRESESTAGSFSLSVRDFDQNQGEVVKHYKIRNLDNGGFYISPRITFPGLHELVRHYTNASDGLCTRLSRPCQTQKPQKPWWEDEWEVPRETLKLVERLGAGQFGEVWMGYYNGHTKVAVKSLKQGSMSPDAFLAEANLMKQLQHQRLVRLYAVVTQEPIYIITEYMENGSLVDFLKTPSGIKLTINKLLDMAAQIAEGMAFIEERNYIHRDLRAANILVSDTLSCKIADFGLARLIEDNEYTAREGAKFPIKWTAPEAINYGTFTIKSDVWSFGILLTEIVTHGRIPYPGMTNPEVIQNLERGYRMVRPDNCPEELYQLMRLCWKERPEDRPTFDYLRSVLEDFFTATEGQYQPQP
Take `Cc1ccc(-c2nn(C(C)(C)C)c3ncnc(N)c23)cc1` [PP1]: the “potency against Lck (in words)” value is recorded as “low nanomolar”.

The next series has as its target Fyn (Homo sapiens, UniProt P06241). Particulars: background, literature report (Hanke et al.); cited from earlier work.
Consider `Cc1ccc(-c2nn(C(C)(C)C)c3ncnc(N)c23)cc1` [PP1], for which the “potency against Fyn (in words)” value is “low nanomolar”.

In general, melting point refers to the temperature, or range, at which the solid turns liquid.
